In patent US11718622B2, “Heterocyclic adenosine receptor antagonists” (Exelixis, Inc., priority 2020, dated 2023):

Legend:
[1] = biological target: Adenosine A2B (ADORA2B) receptor (Homo sapiens (Human), UniProt P29275); experiment: ADORA2B Receptor Binding Assay; details: radioligand binding, membrane stock
Protocol: ADORA2B Receptor Binding Assay
100 μL of Adenosine A2B membrane stock was dispensed into individual wells of an assay plate. 1 μL of each compound (test compounds, high control compound, low control compound) was then transferred into individual wells, followed by 100 μL of radio-labeled ligand. Plates were then sealed, and incubated at room temperature for 1 hour. Unifilter-96 GF/C filter plates were pre-soaked with 50 μL of 0.5% BSA per well for at least 30 min at room temperature. When binding assays were completed, reaction mixtures were filtered through GF/C plates using a Perkin Elmer Filtermate Harvester, and then each plate was washed 4× with cold wash buffer. Filter plates were then dried for 1 hour at 50° C. After drying, the bottom of the filter plate wells was sealed using Perkin Elmer Unifilter-96 backing seal tape. 50 μL of Perkin Elmer Microscint 20 cocktail was then added, and the top of the filter plate was then sealed using Perkin Elmer TopSeal-A sealing film. ^3H trapped on the filter was counted using a Perkin Elmer MicroBeta2 Reader. Data analysis was performed using GraphPad Prism 5 software, and the “Inhibition[% Control]” was calculated using the following equation: % Inh=(1−Background subtracted Assay value/Background subtracted HC value)*100.

[2] = biological target: Adenosine A2a (ADORA2A) receptor (Homo sapiens (Human), UniProt P29274); experiment: ADORA2A Receptor Binding Assay; details: radioligand binding, membrane stock
Protocol: ADORA1A and ADORA2A Receptor Binding Assay
2 μL of each compound (test compounds, high control compound, low control compound) was transferred into individual wells of an assay plate. Also to each individual well, 98 μL of Adenosine A1a membrane stock (for ADORA1A Receptor Binding Assay) or Adenosine A2a membrane stock (for ADORA2A Receptor Binding Assay) was dispensed, followed by 100 μL of radio-labeled ligand. Plates were then sealed, and incubated at room temperature for 1 hour (for ADORA1A Receptor Binding Assay) or 2 hours (for ADORA2A Receptor Binding Assay). Unifilter-96 GF/C filter plates were pre-soaked with 50 μL of 0.3% PEI per well for at least 30 min at room temperature. When binding assays were completed, reaction mixtures were filtered through GF/C plates using a Perkin Elmer Filtermate Harvester, and then each plate was washed 4× with cold wash buffer. Filter plates were then dried for 1 hour at 50° C. After drying, the bottom of the filter plate wells was sealed using Perkin Elmer Unifilter-96 backing seal tape. 50 μL of Perkin Elmer Microscint 20 cocktail was then added, and the top of the filter plate was then sealed using Perkin Elmer TopSeal-A sealing film. ^3H trapped on the filter was counted using a Perkin Elmer MicroBeta2 Reader. Data analysis was performed using GraphPad Prism 5 software, and the “Inhibition [% Control]” was calculated using the following equation: % Inh=(1−Background subtracted Assay value/Background subtracted HC value)*100.

Chain of Adenosine A2a (ADORA2A) receptor (P29274 whole entry): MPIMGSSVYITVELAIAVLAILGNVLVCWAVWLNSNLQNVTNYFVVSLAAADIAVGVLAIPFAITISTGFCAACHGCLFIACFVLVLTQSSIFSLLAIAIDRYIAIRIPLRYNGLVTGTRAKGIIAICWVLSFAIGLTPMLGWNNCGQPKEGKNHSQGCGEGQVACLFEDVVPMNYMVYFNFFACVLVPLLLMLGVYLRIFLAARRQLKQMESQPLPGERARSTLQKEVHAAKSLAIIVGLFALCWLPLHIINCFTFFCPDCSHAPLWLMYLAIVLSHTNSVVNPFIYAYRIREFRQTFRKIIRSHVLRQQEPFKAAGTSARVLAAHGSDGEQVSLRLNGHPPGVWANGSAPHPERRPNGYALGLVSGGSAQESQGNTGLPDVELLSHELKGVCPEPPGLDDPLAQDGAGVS
Chain of Adenosine A2B (ADORA2B) receptor (P29275 whole entry): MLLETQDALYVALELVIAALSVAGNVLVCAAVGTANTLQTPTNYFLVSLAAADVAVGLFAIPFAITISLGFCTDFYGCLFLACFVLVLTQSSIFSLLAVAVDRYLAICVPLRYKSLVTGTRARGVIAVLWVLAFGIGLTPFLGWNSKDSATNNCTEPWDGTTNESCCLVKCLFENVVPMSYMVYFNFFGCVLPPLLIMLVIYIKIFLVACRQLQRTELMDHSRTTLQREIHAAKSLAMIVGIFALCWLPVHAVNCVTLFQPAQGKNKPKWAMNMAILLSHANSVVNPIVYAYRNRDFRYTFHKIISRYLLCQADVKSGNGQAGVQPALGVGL

Row | SMILES | IC50 [1] | IC50 [2]
1 | Cc1nc2cc(N)nc(-c3ccc(C)o3)n2n1 [Compound 1, 2-Methyl-5-(5-methylfuran-2-yl)-[1,2,4]triazolo[1,5-c]pyrimidin-7-amine] | 0.01 to 0.1 µM | < 0.01 µM
2 | Cc1nc2cc(NC(=O)C3CC3)nc(-c3ccc(C)o3)n2n1 [Compound 2, N-(2-methyl-5-(5-methylfuran-2-yl)-[1,2,4]triazolo[1,5-c]pyrimidin-7-yl)cyclopropanecarboxamide] | < 0.01 µM | < 0.01 µM
3 | COc1ccc(Cc2nc3cc(N)nc(-c4ccc(C)o4)n3n2)cc1 [Compound 3, 2-[(4-methoxyphenyl)methyl]-5-(5-methylfuran-2-yl)-[1,2,4]triazolo[1,5-c]pyrimidin-7-amine] | 0.1 to 1 µM | 0.01 to 0.1 µM
4 | COc1ccc(Cc2nc3cc(NC(=O)C4CC4)nc(-c4ccc(C)o4)n3n2)cc1 [Compound 4] | < 0.01 µM | < 0.01 µM
5 | CCC(=O)Nc1cc2nc(C)nn2c(-c2ccc(C)o2)n1 [Compound 5, N-[2-methyl-5-(5-methylfuran-2-yl)-[1,2,4]triazolo[1,5-c]pyrimidin-7-yl]propanamide] | 0.01 to 0.1 µM | < 0.01 µM
6 | Cc1nc2cc(NC(=O)C(C)(C)C)nc(-c3ccc(C)o3)n2n1 [Compound 6, 2,2-dimethyl-N-[2-methyl-5-(5-methylfuran-2-yl)-[1,2,4]triazolo[1,5-c]pyrimidin-7-yl]propanamide] | > 1 µM | < 0.01 µM
7 | CCc1nc2cc(N)nc(-c3ccc(C)o3)n2n1 [Compound 7, 2-ethyl-5-(5-methylfuran-2-yl)-[1,2,4]triazolo[1,5-c]pyrimidin-7-amine] | 0.1 to 1 µM | < 0.01 µM
8 | CCc1nc2cc(NC(=O)C3CC3)nc(-c3ccc(C)o3)n2n1 [Compound 8, N-[2-ethyl-5-(5-methylfuran-2-yl)-[1,2,4]triazolo[1,5-c]pyrimidin-7-yl]cyclopropanecarboxamide] | 0.01 to 0.1 µM | < 0.01 µM
9 | Cc1nc2cc(NC(=O)[C@@H]3CCCN3)nc(-c3ccc(C)o3)n2n1 [Compound 9, (2S)-N-[2-methyl-5-(5-methylfuran-2-yl)-[1,2,4]triazolo[1,5-c]pyrimidin-7-yl]pyrrolidine-2-carboxamide] | – | 0.01 to 0.1 µM
10 | Cc1nc2cc(NC(=O)C3CCC3)nc(-c3ccc(C)o3)n2n1 [Compound 10, N-[2-methyl-5-(5-methylfuran-2-yl)-[1,2,4]triazolo[1,5-c]pyrimidin-7-yl]cyclobutanecarboxamide] | 0.01 to 0.1 µM | < 0.01 µM
11 | Cc1nc2c(Cl)c(N)nc(-c3ccc(C)o3)n2n1 [Compound 11, 8-chloro-2-methyl-5-(5-methylfuran-2-yl)-[1,2,4]triazolo[1,5-c]pyrimidin-7-amine] | < 0.01 µM | < 0.01 µM
12 | Cc1ccc(-c2nc(NC(=O)C3CC3)cc3nc(C(C)C)nn23)o1 [Compound 12, N-[5-(5-methylfuran-2-yl)-2-propan-2-yl-[1,2,4]triazolo[1,5-c]pyrimidin-7-yl]cyclopropanecarboxamide] | < 0.01 µM | < 0.01 µM
13 | Cc1ccc(-c2nc(N)cc3nc(C(C)C)nn23)o1 [Compound 13, 5-(5-methylfuran-2-yl)-2-propan-2-yl-[1,2,4]triazolo[1,5-c]pyrimidin-7-amine] | 0.1 to 1 µM | < 0.01 µM
14 | Cc1nc2cc(NC(=O)C3CNC3)nc(-c3ccc(C)o3)n2n1 [Compound 14, N-[2-methyl-5-(5-methylfuran-2-yl)-[1,2,4]triazolo[1,5-c]pyrimidin-7-yl]azetidine-3-carboxamide] | 0.01 to 0.1 µM | < 0.01 µM
15 | Cc1nc2c(Cl)c(NC(=O)C3CC3)nc(-c3ccc(C)o3)n2n1 [Compound 15, N-[8-chloro-2-methyl-5-(5-methylfuran-2-yl)-[1,2,4]triazolo[1,5-c]pyrimidin-7-yl]cyclopropanecarboxamide] | 0.1 to 1 µM | < 0.01 µM
16 | Cc1nc2c(Br)c(N)nc(-c3ccc(C)o3)n2n1 [Compound 16, 8-bromo-2-methyl-5-(5-methylfuran-2-yl)-[1,2,4]triazolo[1,5-c]pyrimidin-7-amine] | < 0.01 µM | < 0.01 µM

Row | SMILES | IC50 [1] | IC50 [2]
17 | Cc1nc2cc(NC(=O)[C@H]3CCCN3)nc(-c3ccc(C)o3)n2n1 [Compound 17, (2R)-N-[2-methyl-5-(5-methylfuran-2-yl)-[1,2,4]triazolo[1,5-c]pyrimidin-7-yl]pyrrolidine-2-carboxamide] | – | < 0.01 µM
18 | Cc1nc2cc(NC(=O)C3CN(C)C3)nc(-c3ccc(C)o3)n2n1 [Compound 18, 1-methyl-N-[2-methyl-5-(5-methylfuran-2-yl)-[1,2,4]triazolo[1,5-c]pyrimidin-7-yl]azetidine-3-carboxamide] | 0.01 to 0.1 µM | < 0.01 µM
19 | Cc1nc2c(C)c(NC(=O)C3CC3)nc(-c3ccc(C)o3)n2n1 [Compound 19, N-[2,8-dimethyl-5-(5-methylfuran-2-yl)-[1,2,4]triazolo[1,5-c]pyrimidin-7-yl]cyclopropanecarboxamide] | 0.1 to 1 µM | 0.01 to 0.1 µM
20 | Cc1ccc(-c2nc(NC(=O)C3CC3)cc3nc(C(F)(F)F)nn23)o1 [Compound 20, N-[5-(5-methylfuran-2-yl)-2-(trifluoromethyl)-[1,2,4]triazolo[1,5-c]pyrimidin-7-yl]cyclopropanecarboxamide] | < 0.01 µM | < 0.01 µM
21 | Cc1ccc(-c2nc(N)cc3nc(C(F)(F)F)nn23)o1 [Compound 21, 5-(5-methylfuran-2-yl)-2-(trifluoromethyl)-[1,2,4]triazolo[1,5-c]pyrimidin-7-amine] | 0.01 to 0.1 µM | < 0.01 µM
22 | Cc1nc2c(C)c(N)nc(-c3ccc(C)o3)n2n1 [Compound 22, 2,8-dimethyl-5-(5-methylfuran-2-yl)-[1,2,4]triazolo[1,5-c]pyrimidin-7-amine] | 0.01 to 0.1 µM | < 0.01 µM
23 | CNc1nc(-c2ccc(C)o2)n2nc(C)nc2c1Cl [Compound 23, 8-chloro-N,2-dimethyl-5-(5-methylfuran-2-yl)-[1,2,4]triazolo[1,5-c]pyrimidin-7-amine] | > 1 µM | 0.1 to 1 µM
24 | Cc1nc2c(Cl)c(N(C)C)nc(-c3ccc(C)o3)n2n1 [Compound 24, 8-chloro-N,N,2-trimethyl-5-(5-methylfuran-2-yl)-[1,2,4]triazolo[1,5-c]pyrimidin-7-amine] | > 1 µM | > 1 µM
25 | CC(=O)Nc1cc2nc(C)nn2c(-c2ccc(C)o2)n1 [Compound 25, N-[2-methyl-5-(5-methylfuran-2-yl)-[1,2,4]triazolo[1,5-c]pyrimidin-7-yl]acetamide] | < 0.01 µM | < 0.01 µM
26 | Cc1nc2c(C#N)c(N)nc(-c3ccc(C)o3)n2n1 [Compound 26, 7-amino-2-methyl-5-(5-methylfuran-2-yl)-[1,2,4]triazolo[1,5-c]pyrimidine-8-carbonitrile] | < 0.01 µM | < 0.01 µM
27 | Cc1nc2c3sc(=O)[nH]c3nc(-c3ccc(C)o3)n2n1 [Compound 27, 4-methyl-7-(5-methylfuran-2-yl)-12-thia-3,5,6,8,10-pentazatricyclo[7.3.0.0^2,6]dodeca-1(9),2,4,7-tetraen-l1-one] | 0.01 to 0.1 µM | 0.01 to 0.1 µM
28 | Cc1nc2c3c(nc(-c4ccc(C)o4)n2n1)NCC3(C)C [Compound 28, 4,12,12-trimethyl-7-(5-methylfuran-2-yl)-3,5,6,8,10-pentazatricyclo[7.3.0.0^2,6]dodeca-1(9),2,4,7-tetraene] | 0.1 to 1 µM | 0.01 to 0.1 µM
29 | Cc1nc2c(Br)c(NC(=O)C3CC3)nc(-c3ccco3)n2n1 [Compound 31, N-[8-bromo-5-(furan-2-yl)-2-methyl-[1,2,4]triazolo[1,5-c]pyrimidin-7-yl]cyclopropanecarboxamide] | – | 0.01 to 0.1 µM
30 | Cc1ccc(-c2nc(N)cn3ccnc23)o1 [Compound 191, 8-(5-methylfuran-2-yl)imidazo[1,2-a]pyrazin-6-amine] | – | 0.1 to 1 µM
31 | CCOC(=O)c1cn2cc(NC(=O)C3CC3)nc(-c3ccc(C)o3)c2n1 [Compound 193, ethyl 6-(cyclopropanecarbonylamino)-8-(5-methylfuran-2-yl)imidazo[1,2-a]pyrazine-2-carboxylate] | – | 0.01 to 0.1 µM
32 | Cc1ccc(-c2nc(NC(=O)C3CC3)cn3cc(C(=O)O)nc23)o1 [Compound 194, 6-(cyclopropanecarbonylamino)-8-(5-methylfuran-2-yl)imidazo[1,2-a]pyrazine-2-carboxylic acid] | – | > 1 µM
